From patent US5734012A, “Cyclic motilin-like polypeptides with gastrointestinal motor stimulating activity” (Ohmeda Pharmaceutical Products Division Inc., priority 1996, dated 1998)
Positions of bridges follow the written chain, without caps; N, C: chain ends. Non-standard residues stand in square brackets, D forms with d. Residues, ends and D or L forms follow the SMILES beside them. *: point of attachment. X1 = C[N+](C)(C)[C@@H](Cc1ccccc1)C(=O)*; NMeF = CN[C@@H](Cc1ccccc1)C(=O)O

Tests used:
[1] = target: rabbit duodenal smooth muscle strip (Oryctolagus cuniculus, UniProt G1T803); assay: Rabbit duodenal smooth muscle strip tissue bath assay (contractility); type: cell-based; conditions: negative logarithm of dose giving 50% of maximal response to motilin; isotonic contraction of rabbit duodenum segments
Method: The experimental protocol consisted of an equilibration period of 1 hour; a challenge with 10^-4 M acetylcholine followed by a wash-out period; a cumulative dose-response curve of a compound with, at the end, the addition of 10^-7 M motilin; and finally 10^-4 M acetylcholine. If the final response to 10^-4 M acetylcholine differed by more than 5% from the initial response, the results were discarded.

[2] = target: T1, motilin receptor (Oryctolagus cuniculus, UniProt G1T803); assay: Motilin receptor binding affinity (displacement of [125I-Tyr7,Nle13]motilin(porcine)); set-up: species or system rabbit; conditions: negative logarithm of concentration displacing 50% of [125I-Tyr7,Nle13]motilin(porcine) bound to rabbit antral smooth muscle membranes; read-out: pIC50 (converted)
T1 construct: from tissue; host or cells: rabbit antral smooth muscle membranes
Method: The motilin receptor binding affinity of the peptides of this invention was determined by using the general procedure of Bormans, Peeters and Vantrappen, Regul. […] Fitting was performed using the iterative least-squares procedure of the SAS-software package (SAS Institute, Inc., Cary, N.C., USA).

[3] = In vitro stability testing in 2% hog kidney homogenate; type: in vitro ADME; conditions: pig, kidney or brush border membranes, pH 7
Method: Like most small linear polypeptides, motilin is believed to be metabolized by the brush border cells of the kidney. Therefore, kidney homogenate was chosen as the model system for assessing the relative in vivo biostability of the peptides of this invention. All peptides to be studied were incubated in hog kidney (Pel Freeze, Inc., Rogers, Ark.) (2% w/v; final volume=4 mls; buffer=HEPES pH 7.0) at 25° C. […] In order to determine suitable incubation times and sampling intervals, two experiments were conducted with each polypeptide. The first run served as a rough estimate of peptide stability. All sampling was performed in duplicate. Sample volume was 180 μl. Sample clean-up was performed by addition of 20 μl of 100% TCA (final volume=200 μl; final TCA concentration=10%). The sample was vortexed from 5 to 10 seconds to ensure equilibration, then centrifuged to spin out the precipitated proteins. Analysis was carried out on a Waters HPLC system with autoinjector, a 5 μVydac C-18 analytical column, and a Waters 481 UV detector set at 214 nm. Injection volume was 80 μl. Initial solvent conditions were 20% acetonitrile / 80% (0.1%) TFA in Milli-Q water with a 35 minute gradient running to 63% acetonitrile / 37% (0.1%) TFA at 1 ml/min. Polypeptide substrate and metabolite peaks were ratioed to the internal standard and the duplicate sample ratios were averaged. The average ratio for the peptide substrate was expressed as a percentage and plotted versus time. First-order kinetics was assumed for data treatment. The rate of disappearance of the substrate was calculated using the Enzfitter program (Biosoft). Relative half-lives were determined from the relationship: […]

[4] = in vivo; cited from earlier work

T1 sequence (G1T803 1-400): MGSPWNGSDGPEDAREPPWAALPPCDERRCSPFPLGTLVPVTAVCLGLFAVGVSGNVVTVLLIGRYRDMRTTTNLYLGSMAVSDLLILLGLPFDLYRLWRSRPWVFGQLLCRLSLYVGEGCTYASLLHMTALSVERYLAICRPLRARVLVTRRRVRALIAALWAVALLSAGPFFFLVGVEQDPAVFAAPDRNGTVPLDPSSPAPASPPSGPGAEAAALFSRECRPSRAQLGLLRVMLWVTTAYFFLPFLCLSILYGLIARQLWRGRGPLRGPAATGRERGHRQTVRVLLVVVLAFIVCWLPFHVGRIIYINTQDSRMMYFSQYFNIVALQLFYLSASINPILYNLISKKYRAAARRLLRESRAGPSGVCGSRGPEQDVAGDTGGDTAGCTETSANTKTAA
Sequence of rabbit duodenal smooth muscle strip (G1T803 1-400): as above

Compound | pEC50 [1] | IC50 [2] [nM] | half-life at 0.5 mg/ml [3] [min] | half-life (t1/2) [4] [min]
CC[C@H](C)[C@H](NC(=O)[C@@H]1CCCN1C(=O)[C@@H](NC(=O)[C@H](Cc1ccccc1)NC)C(C)C)C(=O)N[C@@H](Cc1ccccc1)C(=O)N[C@H](C(=O)N[C@@H](Cc1ccc(O)cc1)C(=O)NCC(=O)N[C@@H](CCC(=O)O)C(=O)N[C@H]1CC(=O)NCCCC[C@@H](C(=O)N[C@@H](CCCCN)C(N)=O)NC(=O)[C@H](CC(C)C)NC(=O)[C@@H](CCCNC(=N)N)NC(=O)[C@H](C)NC1=O)[C@@H](C)O [SEQ ID NO:12, cyclo^10,14 [N-MePhe^1,Asp^10,Ala^11,D-Arg^12,Leu^13,Lys^14,Lys^15]pMOT(1-15) amide] (H-[NMeF]VPIFTYGEDA[dR]LKK-NH2; lactam 10-14) | 7.81 | 1.74 | 16 | –
CC[C@H](C)[C@H](NC(=O)[C@@H]1CCCN1C(=O)[C@@H](NC(=O)[C@H](Cc1ccccc1)NC)C(C)C)C(=O)N[C@@H](Cc1ccccc1)C(=O)N[C@H](C(=O)N[C@@H](Cc1ccc(O)cc1)C(=O)NCC(=O)N[C@@H](CCC(=O)O)C(=O)N[C@H]1CCC(=O)NCCCC[C@@H](C(=O)N[C@@H](CCCCN)C(N)=O)NC(=O)[C@H](CC(C)C)NC(=O)[C@@H](CCCNC(=N)N)NC(=O)[C@H](C)NC1=O)[C@@H](C)O [SEQ ID NO:15, cyclo^10,14 [N-MePhe^1,Glu^10,Ala^11,D-Arg^12,Leu^13,Lys^14,Lys^15]pMOT(1-15) amide] (H-[NMeF]VPIFTYGEEA[dR]LKK-NH2; lactam 10-14) | 7.68 | 1.02 | 39 | –
CC[C@H](C)[C@H](NC(=O)[C@@H]1CCCN1C(=O)[C@@H](NC(=O)[C@H](Cc1ccccc1)[N+](C)(C)C)C(C)C)C(=O)N[C@@H](Cc1ccccc1)C(=O)N[C@H](C(=O)N[C@@H](Cc1ccc(O)cc1)C(=O)NCC(=O)N[C@@H](CCC(=O)O)C(=O)N[C@H]1CC(=O)NCCCC[C@@H](C(N)=O)NC(=O)[C@H](CC(C)C)NC(=O)[C@H](CCCNC(=N)N)NC(=O)[C@H](C)NC1=O)[C@@H](C)O [SEQ ID NO:16, cyclo^10,14 [Me3 N^+ Phe^1,Asp^10,Ala^11 Leu^13,Lys^14]pMOT(1-14) amide] (X1-VPIFTYGEDARLK-NH2; lactam 9-13) | 6.98 | 2.24 | 103 | –
CC[C@H](C)[C@H](NC(=O)[C@@H]1CCCN1C(=O)[C@@H](NC(=O)[C@@H](N)Cc1ccccc1)C(C)C)C(=O)N[C@@H](Cc1ccccc1)C(=O)N[C@H](C(=O)N[C@@H](Cc1ccc(O)cc1)C(=O)NCC(=O)N[C@@H](CCC(=O)O)C(=O)N[C@@H](CC(C)C)C(=O)N[C@@H](CCC(N)=O)C(=O)N[C@@H](CCCNC(=N)N)C(=O)N[C@@H](CCSC)C(=O)N[C@@H](CCC(N)=O)C(=O)N[C@@H](CCC(=O)O)C(=O)N[C@@H](CCCCN)C(=O)N[C@@H](CCC(=O)O)C(=O)N[C@@H](CCCNC(=N)N)C(=O)N[C@@H](CC(N)=O)C(=O)N[C@@H](CCCCN)C(=O)NCC(=O)N[C@@H](CCC(N)=O)C(=O)O)[C@@H](C)O [motilin] | – | – | – | 4.5

Continued, in another order:

pEC50 [1] | IC50 [2] [nM] | half-life at 0.5 mg/ml [3] [min] | Compound | half-life (t1/2) [4] [min]
7.95 | 0.575 | 31 | CC[C@H](C)[C@H](NC(=O)[C@@H]1CCCN1C(=O)[C@@H](NC(=O)[C@H](Cc1ccccc1)NC)C(C)C)C(=O)N[C@@H](Cc1ccccc1)C(=O)N[C@H](C(=O)N[C@@H](Cc1ccc(O)cc1)C(=O)NCC(=O)N[C@@H](CCC(=O)O)C(=O)N[C@H]1CC(=O)NCCCC[C@@H](C(N)=O)NC(=O)[C@H](CC(C)C)NC(=O)[C@H](CCCNC(=N)N)NC(=O)[C@H](C)NC1=O)[C@@H](C)O [SEQ ID NO:17, cyclo^10,14 [N-MePhe^1,Asp^10,Ala^11,Leu^13,Lys^14]pMOT(1-14) amide] (H-[NMeF]VPIFTYGEDARLK-NH2; lactam 10-14) | –
7.72 | 1.78 | 413 | CC[C@H](C)[C@H](NC(=O)[C@@H]1CCCN1C(=O)[C@@H](NC(=O)[C@H](Cc1ccccc1)[N+](C)(C)C)C(C)C)C(=O)N[C@@H](Cc1ccccc1)C(=O)N[C@H](C(=O)N[C@@H](Cc1ccc(O)cc1)C(=O)NCC(=O)N[C@@H](CCC(=O)O)C(=O)N[C@H]1CC(=O)NCCCC[C@@H](C(=O)N[C@@H](CCCCN)C(N)=O)NC(=O)[C@H](CC(C)C)NC(=O)[C@H](CCCNC(=N)N)NC(=O)[C@H](C)NC1=O)[C@@H](C)O [SEQ ID NO:18, cyclo^10,14 [Me3 N^+ Phe^1,Asp^10,Ala^11,Leu^13,Lys^14,Lys^15]pMOT(1-15) amide] (X1-VPIFTYGEDARLKK-NH2; lactam 9-13) | –
7.72 | 2.88 | 85 | CC[C@H](C)[C@H](NC(=O)[C@@H]1CCCN1C(=O)[C@@H](NC(=O)[C@H](Cc1ccccc1)[N+](C)(C)C)C(C)C)C(=O)N[C@@H](Cc1ccccc1)C(=O)N[C@H](C(=O)N[C@@H](Cc1ccc(O)cc1)C(=O)NCC(=O)N[C@@H](CCC(=O)O)C(=O)N[C@H]1CC(=O)NCCCC[C@@H](C(=O)N[C@@H](CCCCN)C(N)=O)NC(=O)[C@H](CC(C)C)NC(=O)[C@@H](CCCNC(=N)N)NC(=O)[C@H](C)NC1=O)[C@@H](C)O [SEQ ID NO:19, cyclo^10,14 [ME3 N^+ Phe^1,Asp^10,Ala^11,D-Arg^12,Leu^13,Lys^14,Lys^15]pMOT(1-15) amide] (X1-VPIFTYGEDA[dR]LKK-NH2; lactam 9-13) | –
7.34 | 1.55 | 49 | CC[C@H](C)[C@H](NC(=O)[C@@H]1CCCN1C(=O)[C@@H](NC(=O)[C@H](Cc1ccccc1)[N+](C)(C)C)C(C)C)C(=O)N[C@@H](Cc1ccccc1)C(=O)N[C@H](C(=O)N[C@@H](Cc1ccc(O)cc1)C(=O)NCC(=O)N[C@@H](CCC(=O)O)C(=O)N[C@H]1CCC(=O)NCCCC[C@@H](C(=O)N[C@@H](CCCCN)C(N)=O)NC(=O)[C@H](CC(C)C)NC(=O)[C@@H](CCCNC(=N)N)NC(=O)[C@H](C)NC1=O)[C@@H](C)O [SEQ ID NO:20, cyclo^10,14 [Me3 N^+ Phe^1,Glu^10,Ala^11,D-Arg^12,Leu^13,Lys^14,Lys^15]pMOT(1-15) amide] (X1-VPIFTYGEEA[dR]LKK-NH2; lactam 9-13) | –
7.76 | 1.35 | 267 | CC[C@H](C)[C@H](NC(=O)[C@@H]1CCCN1C(=O)[C@@H](NC(=O)[C@H](Cc1ccccc1)[N+](C)(C)C)C(C)C)C(=O)N[C@@H](Cc1ccccc1)C(=O)N[C@H](C(=O)N[C@@H](Cc1ccc(O)cc1)C(=O)NCC(=O)N[C@@H](CCC(=O)O)C(=O)N[C@H]1CCC(=O)NCCCC[C@@H](C(=O)N[C@@H](CCCCN)C(N)=O)NC(=O)[C@H](CC(C)C)NC(=O)[C@H](CCCNC(=N)N)NC(=O)[C@H](C)NC1=O)[C@@H](C)O [SEQ ID NO:21, cyclo^10,14 [Me3 N^+ Phe^1,Glu^10,Ala^11,Leu^13,Lys^14,Lys^15]pMOT(1-15) amide] (X1-VPIFTYGEEARLKK-NH2; lactam 9-13) | –
8.73 | 0.912 | 35 | CC[C@H](C)[C@H](NC(=O)[C@@H]1CCCN1C(=O)[C@@H](NC(=O)[C@H](Cc1ccccc1)NC)C(C)C)C(=O)N[C@@H](Cc1ccccc1)C(=O)N[C@H](C(=O)N[C@@H](Cc1ccc(O)cc1)C(=O)NCC(=O)N[C@@H](CCC(=O)O)C(=O)N[C@H]1CCC(=O)NCCCC[C@@H](C(N)=O)NC(=O)[C@H](CC(C)C)NC(=O)[C@H](CCCNC(=N)N)NC(=O)[C@H](CCC(N)=O)NC1=O)[C@@H](C)O [SEQ ID NO:22, cyclo^10,14 [N-MePhe^1,Glu^10,Leu^13,Lys^14]pMOT(1-14) amide] (H-[NMeF]VPIFTYGEEQRLK-NH2; lactam 10-14) | –
